Patent publication US20250388589A1, “TRICYCLIC HETEROCYCLIC DERIVATIVES, COMPOSITIONS AND USES THEREOF” (Danatlas Pharmaceuticals Co., Ltd., priority 2022, published 2025)

Legend:
[1] = target: hPARG (C-terminal His6-tag) (Homo sapiens (Human), UniProt Q86W56); assay: PARG Enzymatic Activity Assay (HTRF); assay type: biochemical; settings: hPARG 65 pM final, biotinylated-NAD ribosylated PARP1 8 nM final
Summary of the method: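 Readout is time-resolved fluorescence at 620 and 665 nm after 60 min RT detection with streptavidin-Eu cryptate and anti-6HIS-XL665; IC50 by 4-parameter fit, 1% DMSO and no-enzyme controls. Reaction: 8 nM final ribosylated PARP1 substrate for 10 min RT, following 60 min RT enzyme (65 pM)–compound preincubation in Tris pH 7.4 buffer with EDTA, DTT, KCl.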

Kuramochi cell line = assay: Cell Viability Assay (Cell Titer-Glo, 7 days); assay type: cell-based; settings: 168 h, Kuramochi cells, 7 days incubation, read-out: PARG Cell viability (IC50)
Summary of the method: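 IC50 from a four-parameter fit of CellTiter-Glo luminescence, scaled between DMSO-treated (high) and medium-only (low) wells. Kuramochi cells (400/well, RPMI/10% FBS) exposed 7 days at 37 °C to 9 concentrations, 3-fold steps, in duplicate.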

hPARG (C-terminal His6-tag), sequence (Q86W56 whole entry): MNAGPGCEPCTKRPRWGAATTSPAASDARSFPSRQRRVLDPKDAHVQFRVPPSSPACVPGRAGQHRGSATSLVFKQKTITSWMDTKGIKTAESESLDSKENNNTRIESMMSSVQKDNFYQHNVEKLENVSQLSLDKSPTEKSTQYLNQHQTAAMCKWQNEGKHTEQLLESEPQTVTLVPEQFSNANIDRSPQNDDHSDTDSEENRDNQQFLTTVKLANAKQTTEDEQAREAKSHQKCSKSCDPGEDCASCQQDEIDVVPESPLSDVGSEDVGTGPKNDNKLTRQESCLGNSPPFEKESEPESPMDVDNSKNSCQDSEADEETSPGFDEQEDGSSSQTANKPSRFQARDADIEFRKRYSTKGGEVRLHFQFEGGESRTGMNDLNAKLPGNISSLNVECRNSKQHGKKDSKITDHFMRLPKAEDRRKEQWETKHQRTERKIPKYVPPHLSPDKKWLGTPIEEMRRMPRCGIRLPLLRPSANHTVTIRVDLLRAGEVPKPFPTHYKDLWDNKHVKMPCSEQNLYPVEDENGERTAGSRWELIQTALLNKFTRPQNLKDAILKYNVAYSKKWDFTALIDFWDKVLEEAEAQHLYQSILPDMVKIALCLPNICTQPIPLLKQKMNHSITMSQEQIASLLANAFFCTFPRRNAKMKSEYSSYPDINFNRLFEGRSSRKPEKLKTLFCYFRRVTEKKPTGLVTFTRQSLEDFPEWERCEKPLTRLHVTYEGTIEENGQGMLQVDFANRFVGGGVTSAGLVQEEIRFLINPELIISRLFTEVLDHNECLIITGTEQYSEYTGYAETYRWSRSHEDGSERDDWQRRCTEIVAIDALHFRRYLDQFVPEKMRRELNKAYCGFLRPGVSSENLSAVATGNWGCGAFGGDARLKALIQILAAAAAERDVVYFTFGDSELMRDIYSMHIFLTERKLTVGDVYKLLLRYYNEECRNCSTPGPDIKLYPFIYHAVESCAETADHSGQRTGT

SMILES | IC50 [1] | IC50 (Kuramochi cell line)
CO[C@H]1CCN(c2ncnc3c2c2ccc(S(=O)(=O)NC4(C#N)CC4)cc2n3-c2nnc(C(F)F)s2)C[C@H]1F [Example 173, N-(1-cyanocyclopropyl)-9-(5-(difluoromethyl)-1,3,4-thiadiazol-2-yl)-4-((3R,4S)-3-fluoro-4-methoxypiperidin-1-yl)-9H-pyrimido[4,5-b]indole-7-sulfonamide] | < 100 nM | < 100 nM
N#CC1(NS(=O)(=O)c2ccc3c4c(N5CC[C@@H](O)[C@@H](F)C5)ncnc4n(-c4nnc(C(F)F)s4)c3c2)CC1 [Example 174, N-(1-cyanocyclopropyl)-9-(5-(difluoromethyl)-1,3,4-thiadiazol-2-yl)-4-((3S,4R)-3-fluoro-4-hydroxypiperidin-1-yl)-9H-pyrimido[4,5-b]indole-7-sulfonamide] | < 100 nM | < 100 nM
CN(C)C1CCN(c2ncnc3c2c2ccc(S(=O)(=O)NC4(C#N)CC4)cc2n3-c2nnc(C(F)F)s2)C[C@@H]1F (stereo partly drawn) [Example 175, N-(1-cyanocyclopropyl)-9-(5-(difluoromethyl)-1,3,4-thiadiazol-2-yl)-4-((3S)-4-(dimethylamino)-3-fluoropiperidin-1-yl)-9H-pyrimido[4,5-b]indole-7-sulfonamide] | < 100 nM | < 100 nM
N#CC1(NS(=O)(=O)c2ccc3c4c(N5CC6CC(C5)O6)ncnc4n(-c4nnc(C(F)F)s4)c3c2)CC1 [Example 176, 4-(6-oxa-3-azabicyclo[3.1.1]heptan-3-yl)-N-(1-cyanocyclopropyl)-9-(5-(difluoromethyl)-1,3,4-thiadiazol-2-yl)-9H-pyrimido[4,5-b]indole-7-sulfonamide] | < 100 nM | < 100 nM
N#CC1(NS(=O)(=O)c2ccc3c4c(N5C[C@@H]6C[C@H]5CO6)ncnc4n(-c4nnc(C(F)F)s4)c3c2)CC1 [Example 177, 4-((1S,4S)-2-oxa-5-azabicyclo[2.2.1]heptan-5-yl)-N-(1-cyanocyclopropyl)-9-(5-(difluoromethyl)-1,3,4-thiadiazol-2-yl)-9H-pyrimido[4,5-b]indole-7-sulfonamide] | < 100 nM | < 100 nM
COCCN1CCN(c2ncnc3c2c2ccc(S(=O)(=O)NC4(C#N)CC4)cc2n3-c2nnc(C(F)F)s2)C[C@@H]1C [Example 178, (S)-N-(1-cyanocyclopropyl)-9-(5-(difluoromethyl)-1,3,4-thiadiazol-2-yl)-4-(4-(2-methoxyethyl)-3-methylpiperazin-1-yl)-9H-pyrimido[4,5-b]indole-7-sulfonamide] | < 100 nM | < 100 nM
CN(C)C(=O)C1CCN(c2ncnc3c2c2ccc(S(=O)(=O)NC4(C#N)CC4)cc2n3-c2nnc(C(F)F)s2)CC1 [Example 179, 1-(7-(N-(1-Cyanocyclopropyl)sulfamoyl)-9-(5-(difluoromethyl)-1,3,4-thiadiazol-2-yl)-9H-pyrimido[4,5-b]indol-4-yl)-N,N-dimethylpiperidine-4-carboxamide] | < 100 nM | < 100 nM
CC(C)N1CCN(c2ncnc3c2c2ccc(S(=O)(=O)NC4(C#N)CC4)cc2n3-c2nnc(C(F)F)s2)CC1=O [Example 180, N-(1-Cyanocyclopropyl)-9-(5-(difluoromethyl)-1,3,4-thiadiazol-2-yl)-4-(4-isopropyl-3-oxopiperazin-1-yl)-9H-pyrimido[4,5-b]indole-7-sulfonamide] | < 100 nM | < 100 nM
N#CC1(NS(=O)(=O)c2ccc3c4c(N5CCc6cc(CO)cnc6C5)ncnc4n(-c4nnc(C(F)F)s4)c3c2)CC1 [Example 181, N-(1-Cyanocyclopropyl)-9-(5-(difluoromethyl)-1,3,4-thiadiazol-2-yl)-4-(3-(hydroxymethyl)-5,8-dihydro-1,7-napthyridin-7(6H)-yl)-9H-pyrimido[4,5-b]indole-7-sulfonamide] | < 100 nM | 100 to 1000 nM
N#CC1(NS(=O)(=O)c2ccc3c4c(N5CCC6(CCCO6)CC5)ncnc4n(-c4nnc(C(F)F)s4)c3c2)CC1 [Example 182, N-(1-Cyanocyclopropyl)-9-(5-(difluoromethyl)-1,3,4-thiadiazol-2-yl)-4-(1-oxa-8-azaspiro[4.5]decan-8-yl)-9H-pyrimido[4,5-b]indole-7-sulfonamide] | < 100 nM | < 100 nM
N#CC1(NS(=O)(=O)c2ccc3c4c(N5CCC6(CCOC6)CC5)ncnc4n(-c4nnc(C(F)F)s4)c3c2)CC1 [Example 183, N-(1-Cyanocyclopropyl)-9-(5-(difluoromethyl)-1,3,4-thiadiazol-2-yl)-4-(2-oxa-8-azaspiro[4.5]decan-8-yl)-9H-pyrimido[4,5-b]indole-7-sulfonamide] | < 100 nM | < 100 nM
CC1(NS(=O)(=O)c2ccc3c4c(N5CCN6CCOC[C@H]6C5)ncnc4n(-c4nnc(C(F)F)s4)c3c2)CC1 [Example 184, (R)-9-(5-(Difluoromethyl)-1,3,4-thiadiazol-2-yl)-4-(hexahydropyrazino[2,1-c][1,4]oxazin-8(1H)-yl)-N-(1-methylcyclopropyl)-9H-pyrimido[4,5-b]indole-7-sulfonamide] | < 100 nM | 100 to 1000 nM
Cc1nnc(-n2c3cc(S(=O)(=O)NC4(C#N)CC4)ccc3c3c(N4CCN(C(=O)C5CC5)CC4)ncnc32)s1 [Example 185, N-(1-Cyanocyclopropyl)-4-(4-(cyclopropanecarbonyl)piperazin-1-yl)-9-(5-methyl-1,3,4-thiadiazol-2-yl)-9H-pyrimido[4,5-b]indole-7-sulfonamide] | 100 to 1000 nM | 100 to 1000 nM
CC(C)c1nnc(-n2c3cc(S(=O)(=O)NC4(C#N)CC4)ccc3c3c(N4CCN(C(=O)C5CC5)CC4)ncnc32)s1 [Example 186, N-(1-Cyanocyclopropyl)-4-(4-(cyclopropanecarbonyl)piperazin-1-yl)-9-(5-isopropyl-1,3,4-thiadiazol-2-yl)-9H-pyrimido[4,5-b]indole-7-sulfonamide] | 100 to 1000 nM | 100 to 1000 nM
N#CC1(NS(=O)(=O)c2ccc3c4c(N5CCN(C(=O)C6CC6)CC5)ncnc4n(-c4nnc(C(F)(F)F)s4)c3c2)CC1 [Example 188, N-(1-Cyanocyclopropyl)-4-(4-(cyclopropanecarbonyl)piperazin-1-yl)-9-(5-(trifluoromethyl)-1,3,4-thiadiazol-2-yl)-9H-pyrimido[4,5-b]indole-7-sulfonamide] | < 100 nM | 100 to 1000 nM
N#CC1(NS(=O)(=O)c2ccc3c4c(N5CCC(O)CC5)ncnc4n(-c4nnc(C(F)F)s4)c3c2)CC1 [Example 189, N-(1-Cyanocyclopropyl)-9-(5-(difluoromethyl)-1,3,4-thiadiazol-2-yl)-4-(4-hydroxypiperidin-1-yl)-9H-pyrimido[4,5-b]indole-7-sulfonamide] | < 100 nM | < 100 nM
CC(C)C(=O)N1[C@H](C)CN(c2ncnc3c2c2ccc(S(=O)(=O)NC4(C)CC4)cc2n3-c2nnc(C(F)F)s2)C[C@@H]1C [Example 190, 9-(5-(Difluoromethyl)-1,3,4-thiadiazol-2-yl)-4-((3R,5S)-4-isobutyryl-3,5-dimethylpiperazin-1-yl)-N-(1-methylcyclopropyl)-9H-pyrimido[4,5-b]indole-7-sulfonamide] | < 100 nM | < 100 nM
N#CC1(NS(=O)(=O)c2ccc3c4c(N5CCC(O)(C(F)(F)F)CC5)ncnc4n(-c4nnc(C(F)F)s4)c3c2)CC1 [Example 191, N-(1-Cyanocyclopropyl)-9-(5-(difluoromethyl)-1,3,4-thiadiazol-2-yl)-4-(4-hydroxy-4-(trifluoromethyl)piperidin-1-yl)-9H-pyrimido [4,5-b]indole-7-sulfonamide] | < 100 nM | < 100 nM
Cc1nc(N2CCN3CCOC[C@H]3C2)c2c3ccc(S(=O)(=O)NC4(C#N)CC4)cc3n(-c3nnc(C(F)F)s3)c2n1 [Example 192, (R)—N-(1-Cyanocyclopropyl)-9-(5-(difluoromethyl)-1,3,4-thiadiazol-2-yl)-4-(hexahydropyrazino[2,1-c][1,4]oxazin-8(1H)-yl)-2-methyl-9H-pyrimido[4,5-b]indole-7-sulfonamide] | 100 to 1000 nM | < 100 nM
C[C@@H]1CN(C)[C@@H](C)CN1c1ncnc2c1c1ccc(S(=O)(=O)NC3(C#N)CC3)cc1n2-c1nnc(C(F)F)s1 [Example 193, N-(1-Cyanocyclopropyl)-9-(5-(difluoromethyl)-1,3,4-thiadiazol-2-yl)-4-((2R,5S)-2,4,5-trimethylpiperazin-1-yl)-9H-pyrimido[4,5-b]indole-7-sulfonamide] | < 100 nM | < 100 nM
CN(C)C(=O)N1CC=C(c2ccnc3c2c2ccc(S(=O)(=O)NC4(C)CC4)cc2n3-c2nnc(C(F)F)s2)CC1 [Example 194, 4-(9-(5-(Difluoromethyl)-1,3,4-thiadiazol-2-yl)-7-(N-(1-methylcyclopropyl)sulfamoyl)-9H-pyrido[2,3-b]indol-4-yl)-N,N-dimethyl-3,6-dihydropyridine-1(2H)-carboxamide] | 100 to 1000 nM | 100 to 1000 nM
CN(C)C(=O)N1CCC(c2ccnc3c2c2ccc(S(=O)(=O)NC4(C)CC4)cc2n3-c2nnc(C(F)F)s2)CC1 [Example 195, 4-(9-(5-(Difluoromethyl)-1,3,4-thiadiazol-2-yl)-7-(N-(1-methylcyclopropyl)sulfamoyl)-9H-pyrido[2,3-b]indol-4-yl)-N,N-dimethylpiperidine-1-carboxamide] | < 100 nM | 100 to 1000 nM
CC(C)C(=O)N1CC=C(c2ccnc3c2c2ccc(S(=O)(=O)NC4(C#N)CC4)cc2n3-c2nnc(C(F)F)s2)CC1 [Example 196, N-(1-Cyanocyclopropyl)-9-(5-(difluoromethyl)-1,3,4-thiadiazol-2-yl)-4-(1-isobutyryl-1,2,3,6-tetrahydropyridin-4-yl)-9H-pyrido[2,3-b]indole-7-sulfonamide] | < 100 nM | 100 to 1000 nM
